Results from patent US20210338719A1 (SOCIETE DES PRODUITS NESTLE S.A., priority 2017, published 2021).

Assay: Oxidation of LC-PUFAs caused by iron source
Type: physicochemical
Details: iron source in composition containing LC-PUFAs

| SMILES | Oxidation of LC-PUFAs |
| --- | --- |
| O.O.O.O.O.O.O.O=S(=O)([O-])[O-].[Fe+2] [ferrous sulphate heptahydrate] | significant oxidation of LC-PUFAs |
| O.O=S(=O)([O-])[O-].[Fe+2] [ferrous sulphate monohydrate] | no significant oxidation of LC-PUFAs |
